From article PMC7108740, “Exploring the molecular structures that confer ligand selectivity for galanin type II and III receptors” (PLoS ONE, 2020)

Target: T1, GALR3 septuple (Homo sapiens, UniProt O60755, A190V/A191F/C272L/G192S/L100F/Y103F/Y107H)
T1 construct: expressed in transfected cells; host or cells: HEK293 cells stably expressing pGlosensor-22F cAMP plasmid
T1 sequence (O60755 1-368 L100F/Y103F/Y107H/A190V/A191F/G192S/C272L): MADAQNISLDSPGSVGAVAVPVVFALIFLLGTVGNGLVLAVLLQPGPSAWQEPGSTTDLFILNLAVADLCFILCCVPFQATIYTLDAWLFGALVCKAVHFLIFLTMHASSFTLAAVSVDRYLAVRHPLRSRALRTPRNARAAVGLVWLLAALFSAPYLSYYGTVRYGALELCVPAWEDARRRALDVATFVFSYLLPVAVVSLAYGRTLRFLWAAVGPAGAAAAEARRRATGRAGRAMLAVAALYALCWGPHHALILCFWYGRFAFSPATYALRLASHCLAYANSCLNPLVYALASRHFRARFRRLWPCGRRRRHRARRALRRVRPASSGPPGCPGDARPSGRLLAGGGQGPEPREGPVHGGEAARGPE
Assay: cAMP assay (inhibition of forskolin-induced cAMP), GALR3 septuple mutant
Format: cell-based
Conditions: Glosensor-22F cAMP HEK293 cells, agonist 10 min then forskolin 10 μM, mean ± SE, SEM
Experimental: SPX-induced or Qu-SPX-induced cyclic adenosine monophosphate (cAMP) mobilization was measured in HEK293 cells stably expressing the pGlosensor^TM-22F cAMP plasmid (Promega Corp., Madison, WI, USA). The Glosensor-22F cAMP HEK293 cells were seeded on 96-well plates at a density of 2.0 × 10^4 cells/well 24 h before transfection. A mixture including 100 ng expression plasmid and lipofectamine 2000 reagent in diluted Opti-MEM (Gibco) was incubated at room temperature for 20 min. The mixtures were added into each well according to the manufacturer's instructions (Invitrogen, CA, USA). After 48 h, Glosensor cAMP substrates were added to the transfected cells in CO2-independent media. After 2 h, the cells were incubated with a range of agonist concentrations or vehicle for 10 min and then exposed to foskolin (10 μM). Luminescence was measured for up to 30 min using a Microplate Reader (BioTek, Winooski, VT, USA).
Data analysis was performed by non-linear regression with a sigmoidal dose-response curve. The concentrations of agonists that induced half-maximal stimulation (EC50) were calculated using the GraphPad PRISM5 software (GraphPad software, Inc., San Diego, CA). All data are presented as the mean ± standard error (SE) of at least three independent experiments. […]

EC50: 77.6 ± 38.7 nM
SMILES: CSCC[C@H](NC(=O)[C@H](C)NC(=O)[C@H](CCC(N)=O)NC(=O)[C@@H]1CCCN1C(=O)[C@@H](NC(=O)[C@H](Cc1c[nH]c2ccccc12)NC(=O)[C@@H](N)CC(N)=O)[C@@H](C)O)C(=O)N[C@@H](CC(C)C)C(=O)N[C@@H](Cc1ccc(O)cc1)C(=O)N[C@@H](CC(C)C)C(=O)N[C@@H](CCCCN)C(=O)NCC(=O)N[C@@H](C)C(=O)N[C@@H](CCC(N)=O)C(N)=O [SPX, reference compound]
